Publication PMC12811252 (The EMBO Journal, 2025)
Read-outs that look alike come from different tables or passages of the source.

What was measured:
OT-I TCR [1] = experiment: SPR steady-state binding of soluble OT-I TCR to immobilised pMHC (H-2Kb) at 37 °C: apparent and active KD; parameters: species or system mouse
OT-I TCR [2] = settings: 25 °C; ref Alam 95; read-out: Original KD, Alam 95 25ºC; cited from earlier work
Source text: Supplement 44318_2025_644_MOESM5_ESM.zip/KDs - Original vs Revised column.xlsx, sheet "KDs - Original vs Revised colum" | column: Original KD from indicated studies in columns

OT-I TCR [3] = settings: ref Alam 99, cited from earlier work
[4] = system: naive CD8+ T cells from OT-I transgenic mice; settings: 2D affinity AcKa; ref Huang 2010; cited from earlier work
Source text: This striking observation spur ...

[5] = system: OT-I T cells from transgenic mice; parameters: method as in Hogquist 1995; settings: relative to OVA (N4) = 1; ref Hogquist 1995; cited from earlier work
[6] = system: pre-selection OT-I double-positive thymocytes; parameters: method as in Daniels 2006; settings: relative to OVA (N4) = 1; ref Daniels 2006; cited from earlier work
naive OT-I splenocytes = settings: relative to OVA (N4) = 1; ref Huang 2010; cited from earlier work
OT-I TCR [7] = settings: file OT1 Discrimination Published Original KD; repeated per study block; ref Alam 99, Rosette; cited from earlier work
Source text: Supplement 44318_2025_644_MOESM7_ESM.zip/OT1 Discrimination Published Original KD.csv, table

[8] = molecular target: VSV pMHC: […] on H-2K^b with human beta-2 microglobulin (mouse | human | not stated); experiment: SPR
OT-I TCR [9] = experiment: SPR binding of OT-I TCR to inactive (denatured or unfolded) pMHC, Bmax constrained to pMHC immobilisation level; parameters: species or system mouse; settings: unit not printed in the file (text: µM), read-out: KD for inactive pMHC, single experiment
Target sequence in this assay (as listed by the source): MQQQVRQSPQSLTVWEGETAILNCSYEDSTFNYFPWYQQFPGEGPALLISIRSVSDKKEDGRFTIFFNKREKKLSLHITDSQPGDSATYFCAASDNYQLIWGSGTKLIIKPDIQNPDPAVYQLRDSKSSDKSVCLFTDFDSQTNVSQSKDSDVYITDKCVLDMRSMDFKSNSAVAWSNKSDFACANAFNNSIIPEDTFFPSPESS
Target sequence in this assay (as listed by the source): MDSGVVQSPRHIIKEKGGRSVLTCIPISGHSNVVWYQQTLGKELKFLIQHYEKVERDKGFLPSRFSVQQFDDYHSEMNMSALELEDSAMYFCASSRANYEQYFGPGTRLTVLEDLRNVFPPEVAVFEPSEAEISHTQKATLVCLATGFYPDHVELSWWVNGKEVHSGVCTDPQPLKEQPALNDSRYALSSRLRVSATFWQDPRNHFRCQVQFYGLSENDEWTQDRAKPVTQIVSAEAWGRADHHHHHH

OT-I TCR [10] = molecular target: OT-I TCR; parameters: method as in Stepanek et al, 2014; settings: SPR equilibrium binding analysis, 25 °C, mean of two independent replicates; ref Stepanek et al, 2014; cited from earlier work
[11] = system: CD8+ Jurkat cells expressing the OT-I TCR; parameters: method as in Lo 2019; settings: relative to OVA (N4) = 1; ref Lo 2019; cited from earlier work
[12] = system: naive or anergic mouse OT-I CD8+ T cells; parameters: method as in 2 sources, ref Lo et al, 2023 ||| ref Lo 2023; settings: relative to OVA (N4) = 1; values with * excluded; ref Lo 2023; cited from earlier work
OT-I T cells = system: OT-I T cells; parameters: method as in Zehn 2009; settings: relative to OVA (N4) = 1; ref Zehn 2009; cited from earlier work
[13] = replicate 1 (1st value of the list in KD_active_calculated.csv), 37 °C, unit not given in the file (Table 1: µM), read-out: KD active, single SPR experiment
[14] = replicate 2 (2nd value of the list), 37 °C, unit inferred, read-out: KD active, single SPR experiment
[15] = replicate 3 (3rd value of the list), 37 °C, unit inferred, read-out: KD active, single SPR experiment
[16] = replicate 4 (4th value of the list), 37 °C, unit inferred, read-out: KD active, single SPR experiment
[17] = replicate 5 (5th value of the list), 37 °C, unit inferred, read-out: KD active, single SPR experiment
[18] = replicate 6 (6th value of the list), 37 °C, unit inferred, read-out: KD active, single SPR experiment
[19] = 25 °C, read-out: Original KD, Alam 99 (25ºC)
[20] = 37 °C, * excluded values, because kinetics showed biphasic behaviour, read-out: Original KD, Alam 99 (37ºC)
[21] = SPR, single repeats, read-out: KDs active

Substance	Kd (OT-I TCR [1]; [13]) [µM]	Kd (OT-I TCR [1]; [14]) [µM]	Kd (OT-I TCR [1]; [15]) [µM]	Kd (OT-I TCR [1]; [16]) [µM]	Kd (OT-I TCR [1]; [17]) [µM]	Kd (OT-I TCR [1]; [18]) [µM]	also measured
ATLVFHNL [Stat3]	2270	4730	3740	–	–	–	–
EIINFEKL [Peptide E1]	–	2800	12400	3870	3520	2180	Kd (OT-I TCR [1]; replicate 7 (7th value of the list), 37 °C, unit inferred, read-out: KD active, single SPR experiment): 2320 µM; Kd (OT-I TCR [1]; replicate 8 (8th value of the list), 37 °C, unit inferred, read-out: KD active, single SPR experiment): 3030 µM; Kd (OT-I TCR [1]; replicate 9 (9th value of the list), 37 °C, unit inferred, read-out: KD active, single SPR experiment): 7240 µM; Kd (OT-I TCR [1]; replicate 10 (10th value of the list), 37 °C, unit inferred, read-out: KD active, single SPR experiment): 2140 µM; Kd (OT-I TCR [2]): 22.6 µM; Kd (OT-I TCR [3]; [19]): 20.3 µM; 2D Huang 37¼C (AcKa) [4]: 0.0000054; Potency, Hogquist 1995 [5]: 5010000; Potency, Daniels 2006 [6]: 56524; Potency, Huang 2010 (naive OT-I splenocytes): 167000; Kd (OT-I TCR [7]): 20.3 µM
ISFKFDHL [Cappa1]	2470	6920	9740	3280	2800	2530	–
OT-I TCR (soluble; murine variable domains, human constant domains, artificial interchain disulphide)	–	–	–	–	–	–	Kd [8]: 1580 µM
RGYNYEKL [V-OVA, its pMHC is not correctly folded]	–	–	–	–	–	–	Kd (OT-I TCR [9]; replicate 1 (first line of Denatured KD.csv)): 1560 µM; Kd (OT-I TCR [9]; replicate 2 (second line of Denatured KD.csv)): 2630 µM; Kd (OT-I TCR [2]): 29.8 µM; Kd (OT-I TCR [3]; [19]): 18.2 µM; Kd (OT-I TCR [3]; [20]): 12.7 µM; 2D Huang 37¼C (AcKa) [4]: 0.0000029; Potency, Huang 2010 (naive OT-I splenocytes): 417000; Kd (OT-I TCR [7]): 19 µM
RTYTYEKL [Catnb]	2040	1880	1900	2040	1950	2380	Kd (OT-I TCR [1]; [21]): 2040 µM
SIAAFASL [Null]	4610	3520	2350	–	–	–	–
SIIEFEKL [Peptide E4]	3370	4000	2730	–	–	–	Kd (OT-I TCR [10]): > 1000 µM
SIIKFEKL [Peptide K4]	2710	3290	2190	–	–	–	–
SIIQFERL [Peptide Q4R7]	184	273	317	–	–	–	Kd (OT-I TCR [10]): 288 µM; Potency, Daniels 2006 [6]: 81; Potency, Lo 2019 [11]: 3.464; Potency, Lo 2023 [12]: 14.78
SIIRFEKL [Peptide R4]	7640	3760	4270	5030	6430	4280	Kd (OT-I TCR [1]; [21]): 4270 µM; Kd (OT-I TCR [1]; repeat 3, read-out: Revised KDs (This Study)): 4270 µM; Kd (OT-I TCR [1]; repeat 6, read-out: Revised KDs (This Study)): 4270 µM; Kd (OT-I TCR [2]): 57.1 µM; Kd (OT-I TCR [3]; [19]): 40.1 µM; Kd (OT-I TCR [3]; [20]): 26.9 µM; 2D Huang 37¼C (AcKa) [4]: 0.0000017; Potency, Huang 2010 (naive OT-I splenocytes): 167000; Kd (OT-I TCR [7]): 40.1 µM
SIIVFEKL [Peptide V4]	907	791	628	879	–	–	Kd (OT-I TCR [10]): > 1000 µM; Potency, Zehn 2009 (OT-I T cells): 680; Potency, Lo 2023 [12]: 2016
VGPRYTNL [Mapk1]	–	4240	1810	2010	–	–	–
